Measurements: PubChem BioAssay (NCI)
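Interpolation was linear, between the two tested concentrations surrounding the appropriate level; five concentrations were tested over 48 hours in 96-well plates. TGI: total growth inhibition.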

Tests used:
Experiment in all cases: NCI tumour cell line growth inhibition, 48 h
U251 CNS = tested on: U251 CNS
SK-MEL-5 melanoma = tested on: SK-MEL-5 melanoma
MCF7 breast = tested on: MCF7 breast
MDA-MB-435 = tested on: MDA-MB-435
K-562 leukemia = tested on: K-562 leukemia
TK-10 renal = tested on: TK-10 renal
RXF 393 renal = tested on: RXF 393 renal
SF-268 CNS = tested on: SF-268 CNS
RPMI-8226 leukemia = tested on: RPMI-8226 leukemia
SF-295 CNS = tested on: SF-295 CNS
786-0 renal = tested on: 786-0 renal
OVCAR-3 ovarian = tested on: OVCAR-3 ovarian
NCI/ADR-RES ovarian = tested on: NCI/ADR-RES ovarian
SW-620 colon = tested on: SW-620 colon
SR leukemia = tested on: SR leukemia
IGROV1 ovarian = tested on: IGROV1 ovarian
EKVX NSCLC = tested on: EKVX NSCLC
MOLT-4 leukemia = tested on: MOLT-4 leukemia
NCI-H522 lung = tested on: NCI-H522 lung
MDA-MB-231 breast = tested on: MDA-MB-231 breast

Row | Structure (SMILES) | TGI (U251 CNS) [µM] | TGI (SK-MEL-5 melanoma) [µM] | TGI (MCF7 breast) [µM] | TGI (MDA-MB-435) [µM] | TGI (K-562 leukemia) [µM] | TGI (TK-10 renal) [µM] | TGI (RXF 393 renal) [µM] | TGI (SF-268 CNS) [µM] | TGI (RPMI-8226 leukemia) [µM] | TGI (SF-295 CNS) [µM] | TGI (786-0 renal) [µM] | TGI (OVCAR-3 ovarian) [µM] | TGI (NCI/ADR-RES ovarian) [µM] | TGI (SW-620 colon) [µM] | TGI (SR leukemia) [µM] | TGI (IGROV1 ovarian) [µM] | TGI (EKVX NSCLC) [µM] | TGI (MOLT-4 leukemia) [µM] | TGI (NCI-H522 lung) [µM] | TGI (MDA-MB-231 breast) [µM]
1 | C=C1CC/C=C(\C)CCC[C@H](C)[C@@H](O)[C@@H]2OC(=O)C(=C)[C@@H]2C[C@H]1O | 50.2 | 22.6 | > 42.7 | 17.3 | > 38.8 | 4.5 | 22.2 | 23.1 | > 21.9 | 32.9 | 18.6 | 22.6 | 27.2 | > 32.4 | > 100 | 13.8 | > 42.6 | 9.62 | 4.96 | 50.5
2 | Cc1ncc([N+](=O)[O-])n1CCNCCCCn1ccnc1[N+](=O)[O-] | > 100 | > 100 | > 100 | > 100 | > 100 | > 100 | > 100 | > 100 | > 100 | > 100 | > 100 | > 100 | > 100 | > 100 | > 100 | > 100 | > 100 | > 100 | > 100 | > 100
3 | COc1cc2c3c(c1OC)-c1cc4c(cc1CC3(C#N)N(C(=O)c1ccccc1)CC2)OCO4 (stereo not given) | 53.5 | > 100 | > 100 | > 100 | > 100 | 71 | 26.9 | > 91 | > 100 | 58.7 | 57.7 | > 86.6 | > 100 | > 100 | > 100 | > 82.3 | > 100 | > 100 | 81.2 | > 100
4 | CCOC(=O)c1sc2c(c1OC(=O)c1ccc(OC)cc1)c(=O)n(-c1ccccc1)c(=S)n2-c1ccccc1 | > 100 | > 100 | > 100 | > 100 | > 100 | > 100 | > 100 | > 100 | > 100 | > 100 | > 100 | > 100 | 72.2 | > 100 | 93.2 | > 100 | > 100 | > 100 | 23 | 54.2
5 | O=C(N(O)c1ccccc1Cl)C(O)(c1ccccc1)c1ccccc1 | > 100 | > 100 | > 100 | > 100 | 71.5 | > 100 | > 100 | > 100 | 69 | > 100 | > 100 | > 100 | > 100 | > 100 | 49.9 | > 100 | > 100 | > 100 | > 100 | > 100
6 | O=C(NNC(=O)c1ccccc1O)c1cccc(Br)c1 | > 100 | > 100 | > 60.3 | > 100 | > 100 | > 100 | > 100 | > 100 | > 100 | > 100 | > 100 | > 100 | > 100 | > 100 | > 100 | > 100 | > 100 | > 81 | 83.3 | > 77.7
7 | COC1(OC)CCCc2c1no[n+]2[O-] | > 100 | > 100 | > 100 | > 100 | > 100 | > 100 | > 100 | > 100 | > 100 | > 100 | > 100 | > 100 | > 100 | > 100 | > 100 | > 100 | > 100 | > 100 | > 100 | > 100
8 | O=C1NC(N/N=C\C(O)C(O)C(O)C(O)CO)=N/C1=C/c1ccc(Cl)cc1 (stereo not given) | > 100 | > 100 | > 100 | > 100 | > 100 | > 100 | > 100 | > 100 | > 100 | > 100 | > 100 | > 100 | > 100 | > 100 | > 100 | > 100 | > 100 | > 100 | > 100 | > 100
9 | COc1cccc2nc3c(C(=O)NCCN(C)C)cccc3cc12 | 5.46 | 3.09 | 8 | 9.41 | 13.9 | 10.8 | 9.74 | 15.5 | 19.1 | 10.8 | 12.5 | 12.3 | 9.17 | 4.83 | 3.15 | 11 | 9.64 | 21.2 | 3.42 | 9.27
10 | CCOC(=O)[C@H](C)OC(=O)[C@@](C)(NC(=O)c1ccccc1C(=O)OC)[C@@H]1NC=C(C(=O)OC)CS1 | > 100 | > 100 | > 100 | 85.6 | > 100 | > 100 | > 100 | > 100 | > 100 | > 100 | > 100 | > 100 | > 100 | > 100 | 46.5 | > 100 | > 100 | > 100 | > 100 | > 100
